Assay results as given in patent publication US6194378A, “Fibronectin peptides-based extracellular matrix for wound healing” (The Research Foundation of State University of New York, priority 1998, dated 2001).

Tests used:
[1] = system: human adult dermal fibroblasts; experiment: two-dimensional outmigration of fibroblasts from contracted collagen gels over protein coated surfaces; format: cell-based; conditions: for effect of synthetic peptide added to the outmigration assay on migration of fibroblasts onto dried FN: FN coated plates
Protocol: (§1) Primary cultures of human adult dermal fibroblasts, acquired from Marcia Simon (Living Skin Bank, SUNY at Stony Brook), the ATCC (Bethesda, Md.), or the NIA (Bethesda, Md.), are cultured in Dulbecco's modified Eagle's medium (DMEM, Life Technologies) containing 42 mM sodium bicarbonate and supplemented with 100 U/ml penicillin, 100 μg/ml streptomycin, and 10% fetal bovine serum (FBS, HyClone, Logan, Utah), at 37° C. and 5% CO2 /95% air in a humidified atmosphere. The cells are used between passages 4 and 12.
(§2) Fibroblast cultures at 80% confluence are harvested by treatment with 0.05% trypsin/0.01% EDTA. Trypsin is inactivated by addition of soy bean trypsin inhibitor in PBS containing 0.2% BSA. The cells are washed twice with DMEM+2% BSA and resuspended at a concentration of 1×10^6 cells/ml. The fibroblasts are mixed with neutralized collagen (Vitrogen 100, Celtrix Labs., Santa Clara, Calif.), 2% BSA, 30 ng/ml PDGF-BB, 30 μg/ml fibronectin, and concentrated DMEM so that the final concentration of DMEM and sodium bicarbonate is 1x. 600 μl of the cell mixture is added to the wells of a 24-well tissue culture plate, which has been precoated with 2% BSA. The collagen is allowed to polymerize at 37° C. The final concentration of collagen is 1.8 mg/ml and each gel contains 6×10^4 cells. After two hours incubation, the gels are gently detached from the plastic surface to allow contraction with the addition of 0.5 ml DMEM+2% BSA and 30 ng/ml PDGF-BB per well. The gels are incubated overnight at 37° C. in 100% humidity, 5% CO2 and 95% air.
(§3) Fibronectin, its fragments or recombinant domains were diluted with concentrated DMEM to the appropriate concentration. Aliquots of 450 μl protein solution are added to the wells of 24-well tissue culture plates (Becton-Dickinson, Lincoln Park, N.J.). After a 2 hour incubation at 37° C. in 5% CO2, plates were dried overnight at room temperature under sterile conditions.
Plates coated with dried proteins were washed once with PBS and incubated with 2% BSA for 1 hour at 37° C. to block nonspecific binding sites. After washing the plates three times with PBS, contracted-collagen gel organotypic constructs were attached to the coated plates. DMEM, 2% BSA and 30 ng/ml PDGF-BB was added to assay plates so that the medium was level with the top of the collagen gel.
For preparation of "gold standard" transmigration assays containing a dermal organotypic construct surrounded by a fibrin clot as previously described (Greiling and Clark 1997), dried fibrin fibril-coated dishes are washed once with PBS and fibroblast-contracted collagen gels are placed on the surface. Fibrinogen, at a final concentration of 300 μg/ml, is mixed with DMEM and 1.0 U/ml thrombin, added to the wells so that the solution is level with the top of the collagen gel, and allowed to clot at room temperature for 30 min. When needed, other supplements such as 30 ng/ml PDGF-BB are added to the mixture. […] All migration assays are quantified after a 24 hour incubation at 37° C. in 100% humidity, 5% CO2 and 95% air.
The number of migrated cells was quantified under a Nikon inverted phase microscope by visually counting identifiable cell nuclei located outside of the contracted collagen gel in the fibrin gel (transmigration assay) or on the matrix (outmigration assay). Within a given experiment each condition was run in triplicate and means ±SD calculated. […] Statistical differences among conditions can be determined by ANOVA.

corneal epithelial wound = conditions: cited from earlier work
[2] = system: human adult dermal fibroblasts; experiment: three-dimensional transmigration from collagen gel into fibrin gel; format: cell-based
Protocol: as §1, §2
For preparation of "gold standard" transmigration assays containing a dermal organotypic construct surrounded by a fibrin clot as previously described (Greiling and Clark 1997), dried fibrin fibril-coated dishes are washed once with PBS and fibroblast-contracted collagen gels are placed on the surface. Fibrinogen, at a final concentration of 300 μg/ml, is mixed with DMEM and 1.0 U/ml thrombin, added to the wells so that the solution is level with the top of the collagen gel, and allowed to clot at room temperature for 30 min. When needed, other supplements such as 30 ng/ml PDGF-BB are added to the mixture. For HA 3-dimensional transmigration, wells are coated overnight at 37° C. with an appropriate solution of HA. The next day a fibroblast-contracted collagen gel is placed on the HA-coated well in DMEM, with or without 30 ng/ml PDGF-BB, is added so that the solution is level with the top of the collagen gels. All migration assays are quantified after a 24 hour incubation at 37° C. in 100% humidity, 5% CO2 and 95% air.
The number of migrated cells was quantified under a Nikon inverted phase microscope by visually counting identifiable cell nuclei located outside of the contracted collagen gel in the fibrin gel (transmigration assay) or on the matrix (outmigration assay). Within a given experiment each condition was run in triplicate and means ±SD calculated. All experiments were repeated at least three times. Statistical differences among conditions can be determined by ANOVA.
The extracellular matrix of the present invention was tested by use of the in vitro model as described in U.S. patent application Ser. No. 08/723,789, which is hereby incorporated by reference. The basis of the in vitro model is a contracted collagen gel containing fibroblasts which acquire a tissue-like phenotype within the collagen matrix. Surrounding the collagen gel, or dermal equivalent, with a fibrin clot produces a simple inside-outside model of the early cutaneous wound (FIG. 1). Without an added stimulus, no more than a few of the normal adult human dermal fibroblasts within the collagen gel would migrate into the fibrin gel. […]

[3] = system: human adult dermal fibroblasts; experiment: fibroblast adhesion assay; format: cell-based
Protocol: as §1, §3
Assay plates are prepared as described under fibroblast migration assays. The assay for measuring fibroblast adhesion to matrix proteins are performed essentially as described (Gailit et al. 1993) except that the cell concentration is lowered to 100,000 cells/ml or 10,000 cells/well. […] The absorbance at 590 nm is measured with a dual wavelength microtiter plate reader (THERMOmax, Molecular Devices, Menlo Park, Calif.) and the reading corrected for light scattering by subtraction of the absorbance at 450 nm.

CS1: synthetic peptide from the IIICS segment of FN, SEQ ID NO:3 as tested
effect of synthetic peptide added to the outmigration assay on migration of fibroblasts onto dried FN [1]: slightly enhancing effect in the higher concentrations

chondroitin sulfate
effect on wound closure (corneal epithelial wound): did not affect wound closure

fibronectin [FN]
transmigration on inclusion of FN in the collagen gel and in the fibrin gel ([2]; 30 μg/ml FN in each gel): restored transmigration to a normal level
transmigration on addition of FN to the FN-depleted fibrin gel ([2]; FN added to fibrin gel): restored
FN concentration giving optimal cell movement ([2]; FN added to fibrin gel, FN:fibrinogen ratio 1:10): 30 µg/mL
most effective FN concentration in each gel ([2]; FN in both collagen gel and fibrin gel, 10, 30, or 100 μg/ml tested): 30 µg/mL
decrease of fibroblast transmigration into the fibrin clot after removal of FN ([2]; FN removed from fibrinogen by gelatin affinity chromatography, 30 ng/ml PDGF-BB): about 80%
transmigration with FN-free collagen gels ([2]; serum omitted, collagen gel contracted with PDGF-BB): no transmigration occurred
effect of reduction and alkylation of FN dimer to the monomeric state on ability to mediate migration [1]: did not affect
percent migration of that observed on FN, no additional protein added to plates ([1]; plates coated with 120 nmol/l protein, mean ± SD, triplicate, FN normalized to 100%): 100 ± 2.7%
effect of reduction and alkylation of FN dimer to the monomeric state on ability to mediate adhesion [3]: did not affect

peptide I: synthetic peptide from the heparin II binding domain of FN, SEQ ID NO:6 (YEKPGSPRREVVPRPRGV)
effect of synthetic peptide added to the outmigration assay on migration of fibroblasts onto dried FN [1]: inhibited the migration of fibroblasts onto dried FN in a dose-dependent manner
effect of synthetic peptide on migration over collagen ([1]; collagen coated assay plates): inhibitory effect in a dose-dependent manner
